# Results as given in patent US20140135357A1, “DOSE REGIME FOR CAMPTOTHECIN DERIVATIVES” (Taiwan Liposome Company, Ltd., priority 2012, published 2014).
# Where two headings read alike, the source gives them in different places.
# Experiments:
# [1] = human, in vivo; for time at which peak plasma concentrations (Cmax) were achieved / time of rapid rise of the metabolites in the serum after starting the infusion: iv
# Method: (§1) A non-randomized phase I clinical trial was conducted at 4 institutions in the US and Taiwan.
# (§2) Patients were included in this trial if they are over the age of 18, with advanced cancer and the ECOG performance status is 0 or 1. […] Patients were excluded from the study if they have previously received more than 3 regimens of chemotherapy, or if they have received chemotherapy or radiotherapy within 4 weeks of the trial recruitment.
# (§3) Eligible patients were given the pharmaceutical composition of the present invention, comprising a mixture of TLC388HCl and mPEG2000-DSPE in a molar ratio of 1:0.7 to 1:0.9 (known as Lipotecan®). […] The pharmaceutical composition was administered as a 30-min IV infusion, on days 1, 8, and 15 of a 28-day cycle (i.e. 3 IV infusions per 28-day cycle).
# (§4) Serum samples were collected from the patients for pharmacokinetic analysis on day 1, day 8 and day 15 of Cycles 1 and 2, at the following times:
# (§5) Post IV infusion: (Day 1 and 8 of Cycle 1): 33 min; 40 min; 50 min; 1 h; 1 h 30 min; 2 h; 4 h and 8 h. Post IV infusion (Day 15 of Cycle 1 and Day 1, 8, and 15 of Cycle 2): 4 h. Patients were assessed every 8 weeks, after 2 cycles of treatments.
# (§6) During the 2-cycle study period, the patients were examined regularly for the following outcomes: • Side effect/DLT; • The pK profiles of the (S,S) and (S,R) diastereomers of TLC388HCl, its 3 metabolites (TLC-U1, TLC-U2 and Topotecan) on day 1 and day 8 of the treatment cycle; and • Anti-cancer efficacy.
# clinical = settings: human, in vivo
# Method: as §1, §2, §3, §4, §5, §6
# topoisomerase I = target: T1, topoisomerase I (Homo sapiens, UniProt P11387); assay: Topoisomerase I inhibition; format: biochemical
# T1 sequence (P11387 1-765): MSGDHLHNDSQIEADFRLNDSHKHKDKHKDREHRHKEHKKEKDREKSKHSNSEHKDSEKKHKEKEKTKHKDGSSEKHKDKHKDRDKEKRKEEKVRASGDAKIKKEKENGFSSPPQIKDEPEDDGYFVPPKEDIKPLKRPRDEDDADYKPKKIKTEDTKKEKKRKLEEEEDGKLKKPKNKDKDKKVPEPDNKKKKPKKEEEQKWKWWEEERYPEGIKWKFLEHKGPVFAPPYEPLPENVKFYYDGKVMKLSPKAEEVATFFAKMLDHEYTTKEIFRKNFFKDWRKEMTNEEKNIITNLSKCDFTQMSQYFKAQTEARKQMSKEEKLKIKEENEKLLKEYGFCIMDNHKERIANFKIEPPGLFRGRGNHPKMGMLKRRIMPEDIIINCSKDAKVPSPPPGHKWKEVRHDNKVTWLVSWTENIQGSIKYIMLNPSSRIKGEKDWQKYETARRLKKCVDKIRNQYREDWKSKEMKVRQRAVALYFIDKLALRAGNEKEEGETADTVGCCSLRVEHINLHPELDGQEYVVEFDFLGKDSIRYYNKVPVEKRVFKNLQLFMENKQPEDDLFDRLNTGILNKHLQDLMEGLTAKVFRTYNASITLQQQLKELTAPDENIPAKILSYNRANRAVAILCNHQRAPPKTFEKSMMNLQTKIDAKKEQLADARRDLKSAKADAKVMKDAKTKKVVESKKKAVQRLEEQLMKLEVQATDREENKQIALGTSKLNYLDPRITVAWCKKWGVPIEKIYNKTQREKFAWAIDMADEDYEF
compound,measurement,setting,value
"CC[C@@]1(O)C(=O)OCc2c1cc1n(c2=O)Cc2cc3c(CN(C)C)c(O)ccc3nc2-1 [Topotecan, reference compound]",Dose-normalized AUClast,[1],8.52 ± 3.09 nM*h/(mg/m^2)
same,Dose-normalized Cmax,[1],1.95 ± 1.04 nM/(mg/m^2)
same,difference between PK profiles on Day 1 and Day 8,[1],no significant difference
same,dose proportionality of exposure,[1],roughly dose proportional
same,AUC0-t,[1]; 3 mg/m2,7.866 ng·h/mL
same,AUC0-t,[1]; 6 mg/m2,21.656 ng·h/mL
same,AUC0-t,[1]; 9 mg/m2,37.978 ng·h/mL
same,AUC0-t,[1]; 20 mg/m2,44.026 ng·h/mL
same,AUC0-t,[1]; 30 mg/m2,120.74 ng·h/mL
same,AUC0-t,[1]; 35 mg/m2,190.91 ng·h/mL
same,Cmax,[1]; 35 mg/m2,58.075 ng/mL
same,Tmax,[1]; 35 mg/m2,0.604 (0.156) hr
same,t1/2,[1]; 35 mg/m2,6.177 (3.376) hr
same,AUC0-t,[1]; 50 mg/m2,207.30 ng·h/mL
same,AUC0-t,[1]; 60 mg/m2,207.43 ng·h/mL
same,time at which peak plasma concentrations (Cmax) were achieved,[1],within one hour
same,time of rapid rise of the metabolites in the serum after starting the infusion,[1],≤ 15 min
same,AUC0-t,"clinical; 1.3 mg/m2, AUC0-t",5.32 ng·h/mL
same,Cmax,"clinical; 1.3 mg/m2, Cmax",1.06 ng/mL
same,Tmax,"clinical; 1.3 mg/m2, Tmax",0.906 h
same,half-life,"clinical; 1.3 mg/m2, t1/2",4.32 h
same,AUC0-t,"clinical; 1.5 mg/m2, AUC0-t",6.01 ng·h/mL
same,Cmax,"clinical; 1.5 mg/m2, Cmax",1.52 ng/mL
same,Tmax,"clinical; 1.5 mg/m2, Tmax",0.628 h
same,half-life,"clinical; 1.5 mg/m2, t1/2",4.76 h
same,AUC0-t,"clinical; 3 mg/m2, AUC0-t",11.7 ng·h/mL
same,Cmax,"clinical; 3 mg/m2, Cmax",2.1 ng/mL
same,half-life,"clinical; 3 mg/m2, t1/2",7.03 h
same,AUC0-t,"clinical; 6 mg/m2, AUC0-t",21.5 ng·h/mL
same,Cmax,"clinical; 6 mg/m2, Cmax",4.83 ng/mL
same,Tmax,"clinical; 6 mg/m2, Tmax",0.989 h
same,half-life,"clinical; 6 mg/m2, t1/2",6.87 h
same,AUC0-t,"clinical; 9 mg/m2, AUC0-t",27.6 ng·h/mL
same,Cmax,"clinical; 9 mg/m2, Cmax",6.38 ng/mL
same,Tmax,"clinical; 9 mg/m2, Tmax",1.15 h
same,half-life,"clinical; 9 mg/m2, t1/2",7.7 h
same,AUC0-t,clinical; 13.5 mg/m2,37.6 ng·h/mL
same,Cmax,clinical; 13.5 mg/m2,8.71 ng/mL
same,half-life,clinical; 13.5 mg/m2,6.29 h
same,half-life,clinical; 20 mg/m2,4.65 h
same,AUC0-t,"clinical; 20 mg/m2, AUC0-t",47.3 ng·h/mL
same,Cmax,"clinical; 20 mg/m2, Cmax",11.3 ng/mL
same,Tmax,"clinical; 20 mg/m2, Tmax",0.483 h
same,half-life,"clinical; 20 mg/m2, t1/2",5.07 h
same,half-life,clinical; 30 mg/m2,4.63 h
same,AUC0-t,"clinical; 30 mg/m2, AUC0-t",97 ng·h/mL
same,Tmax,"clinical; 30 mg/m2, Tmax",1.54 h
same,half-life,"clinical; 30 mg/m2, t1/2",4.06 h
same,AUC0-t,"clinical; 35 mg/m2, AUC0-t",176 ng·h/mL
same,Cmax,"clinical; 35 mg/m2, Cmax",51.3 ng/mL
same,Tmax,"clinical; 35 mg/m2, Tmax",1 h
same,half-life,"clinical; 35 mg/m2, t1/2",7.66 h
same,Tmax,"clinical; 40 mg/m2, Tmax",0.85 h
same,half-life,"clinical; 40 mg/m2, t1/2",5.84 h
same,half-life,clinical; 50 mg/m2,5.51 h
same,AUC0-t,"clinical; 50 mg/m2, AUC0-t",208 ng·h/mL
same,Cmax,"clinical; 50 mg/m2, Cmax",37.5 ng/mL
same,Tmax,"clinical; 50 mg/m2, Tmax",0.903 h
same,half-life,"clinical; 50 mg/m2, t1/2",7.39 h
same,AUC0-t,"clinical; 60 mg/m2, AUC0-t",215 ng·h/mL
same,Cmax,"clinical; 60 mg/m2, Cmax",57.1 ng/mL
same,Tmax,"clinical; 60 mg/m2, Tmax",0.837 h
same,half-life,"clinical; 60 mg/m2, t1/2",5.18 h
same,Tmax,"clinical; 60 mg/m2, tmax",0.93 ± 0.82 h
same,half-life,clinical; T1/2,> 2.5 h
"CC[C@@]1(OC(=O)[C@@H](C)O)C(=O)OCc2c1cc1n(c2=O)Cc2cc3c(CN(C)C)c(O)ccc3nc2-1 [TLC-U1, S,R-topotecan lactate]",topoisomerase I inhibition,topoisomerase I,weak topoisomerase I Inhibitors
same,Cmax and AUCo-t of TLC-U1 relative to TLC-U2,[1],3-4 times
same,Cmax and AUCo-t of TLC-U1 relative to topotecan,[1],approximately 2 times
same,Dose-normalized AUClast,[1],14.49 ± 4.46 nM*h/(mg/m^2)
same,Dose-normalized Cmax,[1],10.15 ± 3.87 nM/(mg/m^2)
same,difference between PK profiles on Day 1 and Day 8,[1],no significant difference
same,dose proportionality of exposure,[1],roughly dose proportional
same,AUC0-t,[1]; 1.5 mg/m2,10.869 (1.365) hr · ng/mL
same,Cmax,[1]; 1.5 mg/m2,6.897 (1.325) ng/mL
same,Tmax,[1]; 1.5 mg/m2,0.483 (0.000) hr
same,t1/2,[1]; 1.5 mg/m2,2.687 (0.329) hr
same,AUC0-t,[1]; 3 mg/m2,16.705 (4.893) hr · ng/mL
same,AUC0-t,[1]; 6 mg/m2,46.533 (10.74) hr · ng/mL
same,AUC0-t,[1]; 9 mg/m2,54.481 (10.70) hr · ng/mL
same,AUC0-t,[1]; 20 mg/m2,101.46 (37.00) hr · ng/mL
same,AUC0-t,[1]; 30 mg/m2,190.59 (33.45) hr · ng/mL
same,AUC0-t,[1]; 35 mg/m2,406.54 (77.86) hr · ng/mL
same,Cmax,[1]; 35 mg/m2,327.75 (216.8) ng/mL
same,Tmax,[1]; 35 mg/m2,0.546 (0.087) hr
same,t1/2,[1]; 35 mg/m2,4.064 (1.658) hr
same,AUC0-t,[1]; 40 mg/m2,285.94 (207.9) hr · ng/mL
same,AUC0-t,[1]; 50 mg/m2,349.27 (131.8) hr · ng/mL
same,AUC0-t,[1]; 60 mg/m2,417.98 (54.75) hr · ng/mL
same,time at which peak plasma concentrations (Cmax) were achieved,[1],within one hour
same,time of rapid rise of the metabolites in the serum after starting the infusion,[1],≤ 15 min
same,AUC0-t,"clinical; 1.5 mg/m2, AUC0-t",13 ng·h/mL
same,Cmax,"clinical; 1.5 mg/m2, Cmax",11.2 ng/mL
same,Tmax,"clinical; 1.5 mg/m2, Tmax",0.628 h
same,half-life,"clinical; 1.5 mg/m2, t1/2",2.79 h
same,AUC0-t,"clinical; 3 mg/m2, AUC0-t",24.6 ng·h/mL
same,Cmax,"clinical; 3 mg/m2, Cmax",17.1 ng/mL
same,Tmax,"clinical; 3 mg/m2, Tmax",0.467 h
same,half-life,"clinical; 3 mg/m2, t1/2",2.65 h
same,AUC0-t,"clinical; 6 mg/m2, AUC0-t",44.3 ng·h/mL
same,Cmax,"clinical; 6 mg/m2, Cmax",28.5 ng/mL
same,Tmax,"clinical; 6 mg/m2, Tmax",0.467 h
same,half-life,"clinical; 6 mg/m2, t1/2",2.9 h
same,AUC0-t,"clinical; 9 mg/m2, AUC0-t",48.6 ng·h/mL
same,Cmax,"clinical; 9 mg/m2, Cmax",37.8 ng/mL
same,Tmax,"clinical; 9 mg/m2, Tmax",0.563 h
same,half-life,"clinical; 9 mg/m2, t1/2",3.68 h
same,AUC0-t,clinical; 13.5 mg/m2,99.1 ng·h/mL
same,Cmax,clinical; 13.5 mg/m2,56.3 ng/mL
same,Tmax,clinical; 13.5 mg/m2,0.308 h
same,half-life,clinical; 13.5 mg/m2,2.85 h
same,AUC0-t,"clinical; 20 mg/m2, AUC0-t",112 ng·h/mL
same,Cmax,"clinical; 20 mg/m2, Cmax",87.4 ng/mL
same,Tmax,"clinical; 20 mg/m2, Tmax",0.405 h
same,half-life,"clinical; 20 mg/m2, t1/2",2.95 h
same,AUC0-t,"clinical; 30 mg/m2, AUC0-t",163 ng·h/mL
same,Cmax,"clinical; 30 mg/m2, Cmax",105 ng/mL
same,Tmax,"clinical; 30 mg/m2, Tmax",0.454 h
same,half-life,"clinical; 30 mg/m2, t1/2",2.66 h
same,AUC0-t,"clinical; 35 mg/m2, AUC0-t",340 ng·h/mL
same,Cmax,"clinical; 35 mg/m2, Cmax",196 ng/mL
same,Tmax,"clinical; 35 mg/m2, Tmax",0.638 h
same,half-life,"clinical; 35 mg/m2, t1/2",5.33 h
same,AUC0-t,"clinical; 40 mg/m2, AUC0-t",283 ng·h/mL
same,Tmax,"clinical; 40 mg/m2, Tmax",0.392 h
same,half-life,"clinical; 40 mg/m2, t1/2",2.94 h
same,AUC0-t,"clinical; 50 mg/m2, AUC0-t",365 ng·h/mL
same,Cmax,"clinical; 50 mg/m2, Cmax",242 ng/mL
same,Tmax,"clinical; 50 mg/m2, Tmax",0.436 h
same,half-life,"clinical; 50 mg/m2, t1/2",2.9 h
same,AUC0-t,"clinical; 60 mg/m2, AUC0-t",421 ng·h/mL
same,Cmax,"clinical; 60 mg/m2, Cmax",347 ng/mL
same,Tmax,"clinical; 60 mg/m2, Tmax",0.357 h
same,half-life,"clinical; 60 mg/m2, t1/2",2.91 h
same,Tmax,"clinical; 60 mg/m2, tmax",0.45 ± 0.17 h
same,half-life,clinical; T1/2,> 2.5 h
same,Tmax,clinical; Tmax,< 1 h
